This passage reports inhibition results from US20090118332A1, “Therapeutic Agents - 551” (AstraZeneca AB, priority 2006, published 2009).

As a reminder, the inhibition is the percentage by which the read-out fell short of the control. The low end stands for little suppression, the high end for strong suppression.

For the assay, the target named is T1, human Fatty Acid Synthase (Homo sapiens, UniProt P49327).
T1 construct: made in house
The assay is described as follows: Human FAS enzyme assay (decrease in NADPH fluorescence). As to conditions: % inhibition at a concentration of 100 μmolar. It is filed as biochemical. In outline:
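In-house human FAS was preincubated with compound and NADPH for 15 min at room temperature in 0.1 M Tris pH 7.5 with EDTA, glutathione and BSA. Malonyl CoA and acetyl CoA (500 μM and 150 μM in the added mix) were then added for 60 min. IC50 came from time-zero-subtracted NADPH fluorescence (340/460 nm).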

T1 sequence (P49327 whole entry): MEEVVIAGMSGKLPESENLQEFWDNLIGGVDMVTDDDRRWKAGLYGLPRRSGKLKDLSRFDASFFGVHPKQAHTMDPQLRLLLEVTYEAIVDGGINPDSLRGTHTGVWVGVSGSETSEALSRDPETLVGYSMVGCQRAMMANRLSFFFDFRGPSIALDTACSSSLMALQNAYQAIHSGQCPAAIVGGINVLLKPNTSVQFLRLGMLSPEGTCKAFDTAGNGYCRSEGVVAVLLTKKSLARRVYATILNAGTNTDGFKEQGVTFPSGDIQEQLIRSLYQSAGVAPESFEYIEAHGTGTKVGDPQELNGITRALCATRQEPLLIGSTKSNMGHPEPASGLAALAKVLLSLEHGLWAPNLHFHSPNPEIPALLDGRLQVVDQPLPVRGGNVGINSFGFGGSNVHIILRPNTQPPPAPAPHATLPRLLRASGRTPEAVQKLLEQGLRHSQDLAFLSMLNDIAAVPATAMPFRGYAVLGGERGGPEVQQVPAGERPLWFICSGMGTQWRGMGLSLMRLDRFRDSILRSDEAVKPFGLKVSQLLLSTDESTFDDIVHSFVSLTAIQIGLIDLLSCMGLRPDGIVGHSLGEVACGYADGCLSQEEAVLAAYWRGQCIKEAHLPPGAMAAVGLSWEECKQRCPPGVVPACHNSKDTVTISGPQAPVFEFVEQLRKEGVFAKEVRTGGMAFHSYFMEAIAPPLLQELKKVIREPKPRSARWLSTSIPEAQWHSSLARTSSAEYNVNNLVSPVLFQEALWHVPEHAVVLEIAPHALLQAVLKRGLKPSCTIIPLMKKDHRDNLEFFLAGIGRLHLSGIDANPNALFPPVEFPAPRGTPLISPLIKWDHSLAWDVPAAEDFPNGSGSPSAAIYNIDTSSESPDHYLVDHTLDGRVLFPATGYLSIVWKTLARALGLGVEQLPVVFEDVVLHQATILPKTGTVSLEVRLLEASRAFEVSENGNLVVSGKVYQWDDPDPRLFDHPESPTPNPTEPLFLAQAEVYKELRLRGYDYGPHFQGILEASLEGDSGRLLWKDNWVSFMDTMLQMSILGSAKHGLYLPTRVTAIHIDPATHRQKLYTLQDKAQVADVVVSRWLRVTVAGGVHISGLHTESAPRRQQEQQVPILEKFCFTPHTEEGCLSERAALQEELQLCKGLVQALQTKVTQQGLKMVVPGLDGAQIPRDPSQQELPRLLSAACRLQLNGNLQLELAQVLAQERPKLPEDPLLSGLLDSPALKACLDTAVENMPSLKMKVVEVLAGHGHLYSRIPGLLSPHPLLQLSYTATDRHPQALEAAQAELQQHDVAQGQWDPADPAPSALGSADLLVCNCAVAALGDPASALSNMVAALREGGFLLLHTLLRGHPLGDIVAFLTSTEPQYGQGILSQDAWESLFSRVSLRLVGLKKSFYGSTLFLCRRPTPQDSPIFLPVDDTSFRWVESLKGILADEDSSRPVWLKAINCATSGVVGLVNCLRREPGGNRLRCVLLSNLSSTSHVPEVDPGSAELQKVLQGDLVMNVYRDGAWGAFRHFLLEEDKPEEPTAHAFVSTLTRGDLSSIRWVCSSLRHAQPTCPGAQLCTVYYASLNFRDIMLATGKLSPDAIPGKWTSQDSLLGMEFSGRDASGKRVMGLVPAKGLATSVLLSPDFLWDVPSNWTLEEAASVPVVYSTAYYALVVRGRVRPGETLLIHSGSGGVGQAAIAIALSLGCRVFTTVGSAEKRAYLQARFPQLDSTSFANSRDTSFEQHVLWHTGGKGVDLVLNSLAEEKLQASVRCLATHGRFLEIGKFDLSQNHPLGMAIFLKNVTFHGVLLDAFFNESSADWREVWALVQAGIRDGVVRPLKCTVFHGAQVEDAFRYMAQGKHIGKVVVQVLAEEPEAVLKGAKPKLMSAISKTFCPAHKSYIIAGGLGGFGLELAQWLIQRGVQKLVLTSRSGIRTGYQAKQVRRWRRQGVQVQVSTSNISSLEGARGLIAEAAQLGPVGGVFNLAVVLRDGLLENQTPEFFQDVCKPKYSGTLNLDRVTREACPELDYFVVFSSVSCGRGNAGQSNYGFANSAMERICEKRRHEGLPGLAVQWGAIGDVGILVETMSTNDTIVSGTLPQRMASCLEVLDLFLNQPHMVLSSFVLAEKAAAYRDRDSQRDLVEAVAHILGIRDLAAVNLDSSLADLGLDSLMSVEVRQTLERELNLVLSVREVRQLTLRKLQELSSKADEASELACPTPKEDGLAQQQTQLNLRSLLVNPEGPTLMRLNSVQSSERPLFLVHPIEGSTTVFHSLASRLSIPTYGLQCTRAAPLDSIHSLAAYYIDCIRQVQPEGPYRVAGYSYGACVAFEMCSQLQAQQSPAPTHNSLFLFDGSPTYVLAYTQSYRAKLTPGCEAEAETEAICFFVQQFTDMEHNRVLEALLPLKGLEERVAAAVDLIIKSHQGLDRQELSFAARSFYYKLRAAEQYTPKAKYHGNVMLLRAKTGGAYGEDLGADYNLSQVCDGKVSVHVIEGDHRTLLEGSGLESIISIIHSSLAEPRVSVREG

In the case of `Cc1ccc(C(=O)N2CCC(c3ccc(C#N)cc3)CC2)cc1NC(=O)NCCNC(=O)OC(C)(C)C` [Example 102, tert-butyl N-[2-[[5-[4-(4-cyanophenyl)piperidine-1-carbonyl]-2-methyl-phenyl]carbamoylamino]ethyl]carbamate], the inhibition at 100 µM amounted to 91.9%.
Then `Cc1ccc(C(=O)N2CCC(c3ccc(C#N)cc3)CC2)cc1NC(=O)NCCN` [Example 103, 3-(2-aminoethyl)-1-[5-[4-(4-cyanophenyl)piperidine-1-carbonyl]-2-methyl-phenyl]urea], with 91.8%; and `Cc1ccc(C(=O)N2CCC(c3ccc(C#N)cc3)CC2)cc1NC(=O)NCCNC(=O)C(=O)O` [Example 104, 2-[[5-[4-(4-cyanophenyl)piperidine-1-carbonyl]-2-methyl-phenyl]carbamoylamino]ethylcarbamoylformic acid], with 74.5%.
Then `Cc1ccc(C(=O)N2CCC(c3ccc(C#N)cc3)CC2)cc1NC(=O)NCCNC(=O)CC(=O)O` [Example 104A, 2-[2-[[5-[4-(4-cyanophenyl)piperidine-1-carbonyl]-2-methyl-phenyl]carbamoylamino]ethylcarbamoyl]acetic acid], with 79%; and `Cc1ccc(C(=O)N2CCC(c3ccc(C#N)cc3)CC2)cc1NC(=O)N[C@@H](C)c1ccccc1` [Example 105, 1-[5-[4-(4-cyanophenyl)piperidine-1-carbonyl]-2-methyl-phenyl]-3-[(1S)-1-phenylethyl]urea], with 92.7%; and `Cc1ccc(C(=O)N2CCC(c3ccc(C#N)cc3)CC2)cc1NC(=O)N[C@H](C)c1ccccc1` [Example 106, 1-[5-[4-(4-cyanophenyl)piperidine-1-carbonyl]-2-methyl-phenyl]-3-[(1R)-1-phenylethyl]urea], with 90.3%.
The result for `Cc1ccc(C(=O)N2CCC(c3ccc(C#N)cc3)CC2)cc1NC(=O)NC1CCC(O)CC1` (centres unmarked) [Example 107, 1-[5-[4-(4-cyanophenyl)piperidine-1-carbonyl]-2-methyl-phenyl]-3-(4-hydroxycyclohexyl)urea] reads 97.7%; that for `Cc1ccc(C(=O)N2CCC(c3ccc(C#N)cc3)CC2)cc1NC(=O)NCc1cccc(C#N)c1` [Example 108, 3-[(3-cyanophenyl)methyl]-1-[5-[4-(4-cyanophenyl)piperidine-1-carbonyl]-2-methyl-phenyl]urea], 91.8%.
`Cc1ccc(C(=O)N2CCC(c3ccc(C#N)cc3)CC2)cc1NC(=O)NCCNS(C)(=O)=O` [Example 109, 1-[5-[4-(4-cyanophenyl)piperidine-1-carbonyl]-2-methyl-phenyl]-3-(2-methanesulfonamidoethyl)urea] registered an inhibition at 100 µM of 98.3%.
The molecule `CCS(=O)(=O)NCCNC(=O)Nc1cc(C(=O)N2CCC(c3ccc(C#N)cc3)CC2)ccc1C` [Example 110, 3-[5-[4-(4-cyanophenyl)piperidine-1-carbonyl]-2-methyl-phenyl]-1-[2-(ethylsulfonylamino)ethyl]urea] gave an inhibition at 100 µM of 94.2%.
Take `CCC(=O)NCCNC(=O)Nc1cc(C(=O)N2CCC(c3ccc(C#N)cc3)CC2)ccc1C` [Example 111, N-[2-[[5-[4-(4-cyanophenyl)piperidine-1-carbonyl]-2-methyl-phenyl]carbamoylamino]ethyl]propanamide]: the inhibition at 100 µM came to 95.6%.
`Cc1ccc(C(=O)N2CCC(c3ccc(C#N)cc3)CC2)cc1NC(=O)NCCNC(=O)C(C)C` [Example 112, N-[2-[[5-[4-(4-cyanophenyl)piperidine-1-carbonyl]-2-methyl-phenyl]carbamoylamino]ethyl]-2-methyl-propanamide]: the inhibition at 100 µM came out at 94.3%.
The result for `CC(=O)OCC(=O)NCCNC(=O)Nc1cc(C(=O)N2CCC(c3ccc(C#N)cc3)CC2)ccc1C` [Example 113, 2-[[5-[4-(4-cyanophenyl)piperidine-1-carbonyl]-2-methyl-phenyl]carbamoylamino]ethylcarbamoylmethyl acetate] reads 92.7%; that for `Cc1ccc(C(=O)N2CCC(c3ccc(C#N)cc3)CC2)cc1NC(=O)NCCNC(=O)CO` [Example 114, N-[2-[[5-[4-(4-cyanophenyl)piperidine-1-carbonyl]-2-methyl-phenyl]carbamoylamino]ethyl]-2-hydroxy-acetamide], 89.4%.
The result for `Cc1ccc(C(=O)N2CCC(c3ccc(C#N)cc3)CC2)cc1NC(=O)NCCN(C)C(=O)OC(C)(C)C` [Example 115, tert-butyl N-[2-[[5-[4-(4-cyanophenyl)piperidine-1-carbonyl]-2-methyl-phenyl]carbamoylamino]ethyl]-N-methyl-carbamate] reads 92.9%; that for `CNCCNC(=O)Nc1cc(C(=O)N2CCC(c3ccc(C#N)cc3)CC2)ccc1C` [Example 116, 1-[5-[4-(4-cyanophenyl)piperidine-1-carbonyl]-2-methyl-phenyl]-3-(2-methylaminoethyl)urea], 86.2%.
Then `Cc1ccc(C(=O)N2CCC(c3ccc(C#N)cc3)CC2)cc1NC(=O)NCCNC(=O)c1cccs1` [Example 117, N-[2-[[5-[4-(4-cyanophenyl)piperidine-1-carbonyl]-2-methyl-phenyl]carbamoylamino]ethyl]thiophene-2-carboxamide], with 84.5%; and `Cc1ccc(C(=O)N2CCC(c3ccc(C#N)cc3)CC2)cc1NC(=O)NCCNC(=O)c1cccn1C` [Example 118, N-[2-[[5-[4-(4-cyanophenyl)piperidine-1-carbonyl]-2-methyl-phenyl]carbamoylamino]ethyl]-1-methyl-pyrrole-2-carboxamide], with 96.2%.
Molecule `Cc1ccc(C(=O)N2CCC(c3ccc(C#N)cc3)CC2)cc1NC(=O)NCCNC(=O)c1cnoc1C` [Example 119, N-[2-[[5-[4-(4-cyanophenyl)piperidine-1-carbonyl]-2-methyl-phenyl]carbamoylamino]ethyl]-5-methyl-1,2-oxazole-4-carboxamide] came in with an inhibition at 100 µM of 89.2%.
Then `CC(=O)N(C)CCNC(=O)Nc1cc(C(=O)N2CCC(c3ccc(C#N)cc3)CC2)ccc1C` [Example 120, N-[2-[[5-[4-(4-cyanophenyl)piperidine-1-carbonyl]-2-methyl-phenyl]carbamoylamino]ethyl]-N-methyl-acetamide], with 68.3%; and `Cc1ccc(C(=O)N2CCC(c3ccc(C#N)cc3)CC2)cc1NC(=O)NCCN(C)S(C)(=O)=O` [Example 121, 1-[5-[4-(4-cyanophenyl)piperidine-1-carbonyl]-2-methyl-phenyl]-3-[2-(methyl-methylsulfonyl-amino)ethyl]urea], with 86%.
Then `Cc1ccc(C(=O)N2CCC(c3ccc(C#N)cc3)CC2)cc1NC(=O)NCCNS(=O)(=O)C(C)C` [Example 122, 1-[5-[4-(4-cyanophenyl)piperidine-1-carbonyl]-2-methyl-phenyl]-3-[2-(propan-2-ylsulfonylamino)ethyl]urea], with 96.1%.
The result for `Cc1ccc(C(=O)N2CCC(c3ccc(C(=O)N(C)C)cc3)CC2)cc1NC(=O)NCc1ccccc1` [Example 123, 4-[1-[3-(benzylcarbamoylamino)-4-methyl-benzoyl]-4-piperidyl]-N,N-dimethyl-benzamide] reads 79.7%; that for `Cc1ccc(C(=O)N2CCC(c3ccc(C(=O)N(C)C)cc3)CC2)cc1NC(=O)NC(C)C` [Example 124, N,N-dimethyl-4-[1-[4-methyl-3-(propan-2-ylcarbamoylamino)benzoyl]-4-piperidyl]benzamide], 78%.
Take `Cc1ccc(C(=O)N2CCC(c3ccc(C#N)cc3)CC2)cc1NC(=O)NCCC(=O)O` [Example 125, 3-[[5-[4-(4-cyanophenyl)piperidine-1-carbonyl]-2-methyl-phenyl]carbamoylamino]propanoic acid]: the inhibition at 100 µM came to 91.7%.
`Cc1ccc(C(=O)N2CCC(c3ccc(C#N)cc3)CC2)cc1NC(=O)NCCC(N)=O` [Example 126, 3-[[5-[4-(4-cyanophenyl)piperidine-1-carbonyl]-2-methyl-phenyl]carbamoylamino]propanamide] returned an inhibition at 100 µM of 87.4%.
Then `Cc1ccc(C(=O)N2CCC(c3ccc(C#N)cc3)CC2)cc1NC(=O)NCCC(=O)N1CCOCC1` [Example 127, 1-[5-[4-(4-cyanophenyl)piperidine-1-carbonyl]-2-methyl-phenyl]-3-(3-morpholin-4-yl-3-oxo-propyl)urea], with 93%.
The result for `COCCNC(=O)CCNC(=O)Nc1cc(C(=O)N2CCC(c3ccc(C#N)cc3)CC2)ccc1C` [Example 128, 3-[[5-[4-(4-cyanophenyl)piperidine-1-carbonyl]-2-methyl-phenyl]carbamoylamino]-N-(2-methoxyethyl)propanamide] reads 87.5%; that for `Cc1ccc(C(=O)N2CCC(c3ccc(C#N)cc3)CC2)cc1NC(=O)NCCC(=O)NC(C)C` [Example 129, 3-[[5-[4-(4-cyanophenyl)piperidine-1-carbonyl]-2-methyl-phenyl]carbamoylamino]-N-propan-2-yl-propanamide], 99.1%.
Then `Cc1ccc(C(=O)N2CCC(c3ccc(C#N)cc3)CC2)cc1NC(=O)NCCC(=O)N(C)C` [Example 130, 3-[[5-[4-(4-cyanophenyl)piperidine-1-carbonyl]-2-methyl-phenyl]carbamoylamino]-N,N-dimethyl-propanamide], with 90.5%.
`Cc1ccc(C(=O)N2CCC(c3ccc(C#N)cc3)CC2)cc1NC(=O)NCCCN1CCCC1=O` [Example 131, 1-[5-[4-(4-cyanophenyl)piperidine-1-carbonyl]-2-methyl-phenyl]-3-[3-(2-oxopyrrolidin-1-yl)propyl]urea] came in with an inhibition at 100 µM of 89.8%.
Then `CCOC(=O)N1CCC(NC(=O)Nc2cc(C(=O)N3CCC(c4ccc(C#N)cc4)CC3)ccc2C)CC1` [Example 132, ethyl 4-[[5-[4-(4-cyanophenyl)piperidine-1-carbonyl]-2-methyl-phenyl]carbamoylamino]piperidine-1-carboxylate], with 89.5%.
